The record followed here is patent US4175081A, “5-Substituted thiadiazole ureas” (priority 1977, dated 1979).

Assay [1] relates to Crabgrass (CG). Nature of the assay: Post-emergence herbicide test. The class given is in vivo, Digitaria sanquinalis. Particulars: two weeks after treatment; for pest or weed control at 1120.85 g/ha: 1 lb/acre; for pest or weed control: 2 lb/acre; for pest or weed control at 4483.4 g/ha: 4 lb/acre. The protocol:
(§1) Crabgrass (CG)--Digitaria sanquinalis
(§2) All crop and weed species were planted individually in 3' plastic pots containing potting soil. Four seeds each of corn, cotton, and snapbeans were seeded to a depth equal to the diameter of the seed. All other species were surface seeded and sprinkled with screened soil in an amount sufficient to cover the seed. Immediately after planting, all pots were watered by sub-irrigation in greenhouse trays. Pots for the pre-emergence phase were seeded one day before treatment.
(§3) Planting dates for the post-emergence phase were varied so that all seedlings would reach the desired stage of development simultaneously. The proper stage of seedling development for treatment in the post-emergence phase is as follows:
(§4) Spray hood constants required to deliver the above volume are as follows:
(§5) Formulations for spray applications were prepared in 50 ml volumes with the following three components: […]
(§6) Spray applications were made in a hood containing a removable belt and fixed spray nozzle. For passage through the spray hood, one pot of each specie (pre-emergence phase) was placed on the rear half of the flat. Treatments were removed to the greenhouse after spraying. Watering during the observation period was done only by sub-irrigation.
(§7) Two weeks after treatment, pre- and post-emergence injury or control was visually rated, and the results were as shown in the following tables. Pre-emergence data are provided in TABLE III and post-emergence data are provided in TABLE IV, for compounds having the formula illustrated in TABLE I. Correspondingly, pre-emergence and post-emergence data, respectively, are set forth in TABLES V AND VI, for compounds having the formula illustrated in TABLE II.

Assay [2] relates to Johnson grass (JG). The assay can be described thus: Post-emergence herbicide test. Particulars: Sorghum halepense, 336 h, two weeks after treatment; for pest or weed control at 1120.85 g/ha: 1 lb/acre; for pest or weed control: 2 lb/acre; for pest or weed control at 4483.4 g/ha: 4 lb/acre. The class given is in vivo, Sorgum helepense. The method, then:
(§8) Johnson grass (JG)--Sorgum helepense
as §2, §3
(§9) Compounds were tested at rates of application equivalent to 8 lbs. of actual compound per acre in a spray volume of 38 gallons per acre. Spray hood constants required to deliver the above volume are as follows:
(§10) Formulations for spray applications were prepared in 50 ml volumes with the following three components:
(§11) Formulations for the 4 lbs/acre rate were prepared by adjusting the amount of active ingredient accordingly.
as §6, §7

In assay [3] the test system is Barnyard grass (BG). The assay can be described thus: Post-emergence herbicide test. The class given is in vivo. To be noted: Echinochloa crus-galli, 336 h, two weeks after treatment; for pest or weed control at 1120.85 g/ha: 1 lb/acre; for pest or weed control at 2241.7 g/ha: 2 lb/acre; for pest or weed control at 4483.4 g/ha: 4 lb/acre. The method, then:
(§12) Barnyard grass (BG)--Echinochloa crus-galli
as §2, §3, §9, §10, §11, §6, §7

The test system of assay [4] is Turnip (TP). The assay can be described thus: Post-emergence herbicide test. Particulars: two weeks after treatment; for pest or weed control at 1120.85 g/ha: 1 lb/acre; for pest or weed control at 2241.7 g/ha: 2 lb/acre; for pest or weed control at 4483.4 g/ha: 4 lb/acre. The class given is in vivo, Brassica sp. The protocol:
(§13) Turnip (TP)--Brassica sp.
as §2, §3
Pigweed and turnips: 1 or 2 true leaves above visible cotyledons.
as §4, §5, §6, §7

Assay [5] relates to Cotton (CT). The assay can be described thus: Post-emergence herbicide test. Format: in vivo, Gossypium hirsutum var. DPL smooth leaf. To be noted: two weeks after treatment; for pest or weed control at 1120.85 g/ha: 1 lb/acre; for pest or weed control at 2241.7 g/ha: 2 lb/acre; for pest or weed control at 4483.4 g/ha: 4 lb/acre. The method, then:
Cotton (CT)--Gossypium hirsutum var. DPL smooth leaf
as §2, §3
Cotton: first true leaf 1' in length; expanded cotyledons.
as §4, §10, §11, §6, §7

The test system of assay [6] is Corn (CN). The assay can be described thus: Post-emergence herbicide test. Particulars: Zea mays, 336 h, two weeks after treatment; for pest or weed control at 1120.85 g/ha: 1 lb/acre; for pest or weed control: 2 lb/acre; for pest or weed control at 4483.4 g/ha: 4 lb/acre. The class given is in vivo. The protocol:
as §2, §3, §9, §10, §11, §6, §7

Assay [7] relates to Bean (BN). Nature of the assay: Post-emergence herbicide test. To be noted: two weeks after treatment; for pest or weed control at 1120.85 g/ha: 1 lb/acre; for pest or weed control at 2241.7 g/ha: 2 lb/acre; for pest or weed control at 4483.4 g/ha: 4 lb/acre. The class given is in vivo, Phaseolus vulgaris var. Black Valentine. The protocol: Bean (BN)--Phaseolus vulgaris var. Black Valentine
as §2, §3
Beans: primary leaves expanded, growing point at primary leaf nodes.
as §4, §10, §11, §6, §7

For assay [8], the system named is Crabgrass (CG). Nature of the assay: Pre-emergence herbicide test. The class given is in vivo, Digitaria sanquinalis. Particulars: two weeks after treatment; for pest or weed control at 4483.4 g/ha: 4 lb/acre. The protocol:
as §1, §2, §4, §5, §6, §7

In assay [9] the test system is Turnip (TP). Nature of the assay: Pre-emergence herbicide test. To be noted: two weeks after treatment; for pest or weed control at 4483.4 g/ha: 4 lb/acre. The class given is in vivo, Brassica sp. The protocol:
as §13, §2, §4, §5, §6, §7

In assay [10] the test system is Johnson grass (JG). Nature of the assay: Pre-emergence herbicide test. The class given is in vivo, Sorgum helepense. Particulars: Sorghum halepense, 336 h, two weeks after treatment. The method, then:
as §8, §2, §9, §10, §11, §6, §7

Assay [11] deals with Barnyard grass (BG). The assay can be described thus: Pre-emergence herbicide test. The class given is in vivo. Particulars: Echinochloa crus-galli, 336 h, 4 lb/acre, two weeks after treatment. The protocol: as §12, §2, §9, §10, §11, §6, §7
Where [12] appears, read: Digitaria sanguinalis, post-emergence, 336 h.
[13] abbreviates: Brassica rapa, post-emergence, 336 h.
[14] abbreviates: Gossypium hirsutum, post-emergence, 336 h.
Where [15] appears, read: Phaseolus vulgaris, post-emergence, 336 h.
Setting [16] is: Digitaria sanguinalis, pre-emergence, 336 h.
Where [17] appears, read: Brassica rapa, pre-emergence, 336 h.

The term pest or weed control denotes the degree to which the test organism was suppressed or injured, in per cent. Regarding `CNC(=O)Nc1nnc(SCC(C)C)s1` [Example 44], the pest or weed control at 1120.85 g/ha in assay [1] (setting [12]) came to 80%; in [2], 60%; in assay [3], 80%; in assay [4] (setting [13]) it was 40%; in [5] (setting [14]) it was 100%; in assay [6] it was 60%. In addition, the pest or weed control at 1120.85 g/ha in assay [7] (setting [15]) stood at 80%. The pest or weed control in [1] (setting [12]) turned out to be 90%; in [2], 80%; in assay [6] it was 60%. In addition, the pest or weed control at 2241.7 g/ha in assay [3] was determined as 90%; in assay [4] (setting [13]) it was 80%; in [5] (setting [14]), 100%; in assay [7] (setting [15]), 100%.

For the compound `CCCCSc1nnc(NC(=O)NC)s1` [Example 45], the pest or weed control at 1120.85 g/ha in [1] (setting [12]) was determined as 90%; in assay [2] it was 60%; in [3], 90%; in assay [4] (setting [13]), 50%; in assay [5] (setting [14]), 100%; in assay [6], 70%. For the same compound, the pest or weed control at 1120.85 g/ha in assay [7] (setting [15]) came to 90%. Further, the pest or weed control in assay [1] (setting [12]) worked out at 90%; in [2], 90%; in assay [6], 60%. Further, the pest or weed control at 2241.7 g/ha was 80% in assay [3], 70% in [4] (setting [13]), 100% in assay [5] (setting [14]) and 100% in assay [7] (setting [15]).

For `CNC(=O)Nc1nnc(SCc2ccccc2)s1` [Example 46], the pest or weed control at 4483.4 g/ha in [1] (setting [12]) was determined as 70%; in [2], 70%; in [3] it was 70%; in [4] (setting [13]), 100%; in assay [5] (setting [14]), 100%; in assay [6], 30%. Besides, the pest or weed control at 4483.4 g/ha in [7] (setting [15]) was 90%.

On to `CCCCCCS(=O)(=O)c1nnc(NC(=O)NC)s1` [Example 58], for which the pest or weed control at 4483.4 g/ha in assay [1] (setting [12]) was 50%; in assay [2], 30%; in assay [3], 20%; in [4] (setting [13]) it was 80%; in [5] (setting [14]), 50%; in assay [6], 20%. Further, the pest or weed control at 4483.4 g/ha in assay [7] (setting [15]) amounted to 70%.

With `CCCCCSc1nnc(NC(=O)NC)s1` [Example 59], the pest or weed control at 4483.4 g/ha stood at 90% in assay [1] (setting [12]); 80% in assay [2]; 70% in assay [3]; 100% in assay [4] (setting [13]); 100% in assay [5] (setting [14]); 40% in assay [6]. For the same compound, in [7] (setting [15]), the pest or weed control at 4483.4 g/ha is 100%.

In the case of `CCCCCCSc1nnc(NC(=O)NC)s1` [Example 60], the pest or weed control at 4483.4 g/ha in assay [1] (setting [12]) is 80%; in assay [2], 70%; in assay [3] it was 40%; in assay [4] (setting [13]), 100%; in assay [5] (setting [14]), 70%; in assay [6], 60%. Also, in assay [7] (setting [15]), the pest or weed control at 4483.4 g/ha turned out to be 100%. Besides, in assay [4] (setting [13]), the pest or weed control at 2241.7 g/ha is 100%.

For `CCCCCS(=O)(=O)c1nnc(NC(=O)NC)s1` [Example 64], the pest or weed control at 4483.4 g/ha in [1] (setting [12]) was 90%; in [2], 50%; in assay [3] it was 60%; in assay [4] (setting [13]) it was 90%; in assay [5] (setting [14]), 70%; in assay [6], 30%. In [7] (setting [15]), this compound showed a pest or weed control at 4483.4 g/ha of 90%.

As for `CCCCS(=O)(=O)c1nnc(NC(=O)NC)s1` [Example 65], the pest or weed control at 4483.4 g/ha in assay [1] (setting [12]) stood at 90%; in assay [2], 60%; in assay [3] it was 90%; in [4] (setting [13]), 100%; in assay [5] (setting [14]) it was 70%; in assay [6], 30%. This compound also returned a pest or weed control at 4483.4 g/ha in assay [7] (setting [15]) of 100%.

For the compound `NC(=O)Nc1nnc(C(F)(F)F)s1` [Example 70], the “Pre-emergence activity, % control, CG” value in assay [8] (5 lb/acre) and in assay [8] (10 lb/acre) was 10% throughout. In addition, the “Pre-emergence activity, % control, TP” value in [9] (5 lb/acre) and in [9] (10 lb/acre) was 10% throughout. Moreover, the “Post-emergence activity, % control, CG” value in assay [1] (5 lb/acre) and in assay [1] (10 lb/acre) was 20% in each case. For the same compound, the “Post-emergence activity, % control, TP” value in [4] (5 lb/acre) and in assay [4] (10 lb/acre) was 80% each time. In addition, the “Post-emergence activity, % control, CT” value in [5] (5 lb/acre) and in assay [5] (10 lb/acre) was 20% throughout. The “Post-emergence activity, % control, BN” value in [7] (5 lb/acre) and in [7] (10 lb/acre) was 50% each time.

Take `CNC(=O)Nc1nnc(C(C)C)s1` [Example 82]: the pest or weed control at 4483.4 g/ha in [8] (setting [16]) is 30%; in [10] (4 lb/acre), 0%; in assay [9] (setting [17]), 20%; in assay [1] (setting [12]) it was 50%; in assay [4] (setting [13]) it was 80%; in assay [5] (setting [14]), 80%. For the same compound, the pest or weed control at 4483.4 g/ha in [7] (setting [15]) was 60%.

Regarding `Cc1nnc(NC(N)=O)s1` [Example 84, reference compound], the pest or weed control at 11208.5 g/ha is 0% in [8] (Digitaria sanguinalis, pre-emergence, 336 h, 10 lb/acre); 50% in assay [10] (10 lb/acre); 0% in assay [9] (Brassica rapa, pre-emergence, 336 h, 10 lb/acre); 20% in assay [1] (Digitaria sanguinalis, post-emergence, 336 h, 10 lb/acre); 80% in assay [4] (Brassica rapa, post-emergence, 336 h, 10 lb/acre); 20% in assay [5] (Gossypium hirsutum, post-emergence, 336 h, 10 lb/acre). The compound also yielded a pest or weed control at 11208.5 g/ha in assay [7] (Phaseolus vulgaris, post-emergence, 336 h, 10 lb/acre) of 50%.

For the compound `CNC(=O)Nc1nnc(C2CC2)s1` [Example 85], the pest or weed control at 4483.4 g/ha in assay [8] (setting [16]) was 0%; in [11], 0%; in assay [9] (setting [17]), 0%; in assay [1] (setting [12]), 30%; in assay [4] (setting [13]), 60%; in assay [5] (setting [14]), 80%. The pest or weed control at 4483.4 g/ha in [7] (setting [15]) amounted to 50%.
